Source: patent US9416115B2, “Fused heterocyclic compounds as ion channel modulators” (Gilead Sciences, Inc., priority 2013, dated 2016)

Key:
[1] = test system: Ischemia-Induced ST Segment Elevation in Anesthetized Rabbits; assay: Ischemia-induced ST segment elevation in anesthetized rabbits; assay type: in vivo, New Zealand rabbits; conditions: iv infusion; 15 min LAD ischemia after 30 min of compound administration
Procedure: This study was undertaken to determine the anti-ischemic effects of compounds of the present disclosure in an in vivo rabbit model.
Female New Zealand rabbits (3.0-4.0 kg) were purchased from Western Oregon Rabbitry. Animals were housed on a 12-h light and dark cycle and received standard laboratory chow and water. All experiments were performed in accordance with the Guide for the Care and Use of Laboratory Animals published by The National Research Council and with the experimental protocol approved by the Institutional Animal Care Committee of Gilead Sciences, Inc.
Rabbits were anesthetized with ketamine (35 mg/kg) and xylazine (5 mg/kg) intramuscular injection (im). A tracheotomy was performed and the trachea was intubated with an endotracheal tube. The animal was ventilated with room air supplemented with oxygen using a pressure control animal ventilator (Kent Scientific Corp., Torrington, Conn.) at a respiratory rate of 40 strokes/min and peak inspiration pressure of 10 mmH2O, which was adjusted to keep blood gases and pH within the physiological range (iSTAT clinic analyzer, Heska Corp.; Waukesha, Wis.). The left femoral artery was cannulated for the measurement of blood pressure (BP). Blood samples were also withdrawn from femoral artery. The right external jugular vein was cannulated for drug/vehicle administration. Needle electrodes were inserted subcutaneously into the limbs for recording of the surface electrocardiogram (ECG).
The heart was exposed via an incision in the 4th intercostal space (4th and/or 5th ribs were cut for a clear surgical vision). The chest was opened and a pericardial cradle was formed using 4 retractors. A coronary artery occluder, comprised of a snare made of 5 cm PE-10 tubing with a 6-0 Prolene polypropylene suture in it, was placed loosely around the left anterior descending artery (LAD) at its origin. Two unipolar electrodes, made with teflon coated silver wire attached to a small patch of filter paper, were attached on the surface of the ischemic and normal regions of the left ventricle to record epicardial electrocardiogram.
Reference electrodes were placed in the open incision of the neck. The body temperature of the animal was monitored via a rectal thermometer and maintained at 37-40° C. by adjusting the surface temperature of the surgical table. Regional ischemia (15 min) was induced by ligating the LAD followed by 15 min of reperfusion caused by releasing the ligation. The heart was excised at the end of the experiment and the LAD was re-ligated. The ischemic area was visualized by perfusing the heart with 1% Evans blue in saline and calculated as a percentage of total ventricular weight. Rabbits with ischemic area less than 10% or larger than 25% were excluded from the analysis. Animals were randomly assigned to vehicle and test compound groups. Test compounds were dissolved in 15% NMP, 10% Solutol and 75% de-ionized water (dH2O). Test compounds were given as an iv infusion at a rate targeted to reach plasma concentrations of 1 μM. After 30 min of compound administration the heart was subjected to 15 min of ischemia followed by 15 min of reperfusion.

hNav1.3 (SCN3A) = target: T1, hNav1.3 (SCN3A) (Homo sapiens, UniProt Q9NY46); assay: Voltage-dependent inhibition of the Nav1.3 sodium channel; assay type: cell-based; conditions: voltage-dependent block of peak current, read-out: Nav 1.3-VDB 1 uM
T1 construct: expressed in transfected cells
Procedure: HEK-293 cells stably expressing wild-type (WT) hNav1.3 (SCN3A NCBI # NP 001075, SCN1B NCBI # NM 001037.4, SCN2B NCBI # NM 004588.2) were used to record INa. Cells are maintained with standard tissue culture procedures and stable channel expression is maintained with 800 ug/mL G418 and 3 ug/mL Puromycin in the culture medium. Unless otherwise noted, all reagents are purchased from Sigma-Aldrich (St Louis, Mo., U.S.A.).
Assays measuring Voltage-Dependent Block (VDB) of Nav1.3 are performed on an automated electrophysiology platform, QPatch 16X or QPatch HT (Sophion Bioscience, Copenhagen, Denmark), using the whole cell patch clamp technique to measure currents through the cell membrane. Series resistance compensation is set to 100% and series resistance and whole-cell compensation are performed automatically. Currents stored in the Sophion Bioscience Oracle database (Sophion Bioscience, Copenhagen, Denmark). Analysis is performed using QPatch Assay software and data are compiled in Excel 2010 (Microsoft, Seattle, Wash., U.S.A.).
The internal (pipette) solution consists of (in mM) 105 CsF, 10 NaF, 20 CsCl, 2 EGTA, 10 HEPES, 10 Dextrose with a pH of 7.35 and osmolarity of 300 mOsmol/kg. The external (bath) solution contains in (mM): 80 NaCl, 60 Choline-Cl, 4 KCl, 1.8 CaCl2, 1 MgCl2, 10 dextrose, 10 HEPES, with a pH of 7.35 and osmolarity of 310 mOsmol/kg. Experiments are carried out at 23-25° C.
Compound stocks are routinely made by the Gilead Sample Bank in vials to 10 mM in dimethyl sulfoxide (DMSO). In some cases, when compounds are not soluble in DMSO, they are made in 100% ethanol. Stocks are sonicated as necessary. Compounds are diluted in extracellular solution using a MicroLab Nimbus (Hamilton Robotics, Reno, Nev.) to 1 μM in glass vials and transferred to glass well plates before robotic addition to the cells.
Cells are allowed to stabilize for 10 min after establishment of the whole-cell configuration before current is measured. The test compound is applied 3 times at 120 second intervals to allow for equilibration. Currents were leak subtracted using a P/4 procedure, low-pass Bessel filtered at 5 kHz and digitized at 25 kHz. Results are presented as mean percentage inhibition.
Voltage-dependent block of Nav1.3 peak current was measured during a voltage step to 0 mV (20 ms) following a voltage step pre-conditioning steps (−55 mV for 10 sec followed by −120 mV for 10 ms). The holding potential was −120 mV and this voltage protocol induces half maximal inactivation of Nav1.3. The voltage protocol for VDB was performed every 45 seconds in the absence and presence of compound and percentage inhibition was calculated with respect to the compound free condition.

T1 sequence (Q9NY46 1-1951 isoform Q9NY46-2): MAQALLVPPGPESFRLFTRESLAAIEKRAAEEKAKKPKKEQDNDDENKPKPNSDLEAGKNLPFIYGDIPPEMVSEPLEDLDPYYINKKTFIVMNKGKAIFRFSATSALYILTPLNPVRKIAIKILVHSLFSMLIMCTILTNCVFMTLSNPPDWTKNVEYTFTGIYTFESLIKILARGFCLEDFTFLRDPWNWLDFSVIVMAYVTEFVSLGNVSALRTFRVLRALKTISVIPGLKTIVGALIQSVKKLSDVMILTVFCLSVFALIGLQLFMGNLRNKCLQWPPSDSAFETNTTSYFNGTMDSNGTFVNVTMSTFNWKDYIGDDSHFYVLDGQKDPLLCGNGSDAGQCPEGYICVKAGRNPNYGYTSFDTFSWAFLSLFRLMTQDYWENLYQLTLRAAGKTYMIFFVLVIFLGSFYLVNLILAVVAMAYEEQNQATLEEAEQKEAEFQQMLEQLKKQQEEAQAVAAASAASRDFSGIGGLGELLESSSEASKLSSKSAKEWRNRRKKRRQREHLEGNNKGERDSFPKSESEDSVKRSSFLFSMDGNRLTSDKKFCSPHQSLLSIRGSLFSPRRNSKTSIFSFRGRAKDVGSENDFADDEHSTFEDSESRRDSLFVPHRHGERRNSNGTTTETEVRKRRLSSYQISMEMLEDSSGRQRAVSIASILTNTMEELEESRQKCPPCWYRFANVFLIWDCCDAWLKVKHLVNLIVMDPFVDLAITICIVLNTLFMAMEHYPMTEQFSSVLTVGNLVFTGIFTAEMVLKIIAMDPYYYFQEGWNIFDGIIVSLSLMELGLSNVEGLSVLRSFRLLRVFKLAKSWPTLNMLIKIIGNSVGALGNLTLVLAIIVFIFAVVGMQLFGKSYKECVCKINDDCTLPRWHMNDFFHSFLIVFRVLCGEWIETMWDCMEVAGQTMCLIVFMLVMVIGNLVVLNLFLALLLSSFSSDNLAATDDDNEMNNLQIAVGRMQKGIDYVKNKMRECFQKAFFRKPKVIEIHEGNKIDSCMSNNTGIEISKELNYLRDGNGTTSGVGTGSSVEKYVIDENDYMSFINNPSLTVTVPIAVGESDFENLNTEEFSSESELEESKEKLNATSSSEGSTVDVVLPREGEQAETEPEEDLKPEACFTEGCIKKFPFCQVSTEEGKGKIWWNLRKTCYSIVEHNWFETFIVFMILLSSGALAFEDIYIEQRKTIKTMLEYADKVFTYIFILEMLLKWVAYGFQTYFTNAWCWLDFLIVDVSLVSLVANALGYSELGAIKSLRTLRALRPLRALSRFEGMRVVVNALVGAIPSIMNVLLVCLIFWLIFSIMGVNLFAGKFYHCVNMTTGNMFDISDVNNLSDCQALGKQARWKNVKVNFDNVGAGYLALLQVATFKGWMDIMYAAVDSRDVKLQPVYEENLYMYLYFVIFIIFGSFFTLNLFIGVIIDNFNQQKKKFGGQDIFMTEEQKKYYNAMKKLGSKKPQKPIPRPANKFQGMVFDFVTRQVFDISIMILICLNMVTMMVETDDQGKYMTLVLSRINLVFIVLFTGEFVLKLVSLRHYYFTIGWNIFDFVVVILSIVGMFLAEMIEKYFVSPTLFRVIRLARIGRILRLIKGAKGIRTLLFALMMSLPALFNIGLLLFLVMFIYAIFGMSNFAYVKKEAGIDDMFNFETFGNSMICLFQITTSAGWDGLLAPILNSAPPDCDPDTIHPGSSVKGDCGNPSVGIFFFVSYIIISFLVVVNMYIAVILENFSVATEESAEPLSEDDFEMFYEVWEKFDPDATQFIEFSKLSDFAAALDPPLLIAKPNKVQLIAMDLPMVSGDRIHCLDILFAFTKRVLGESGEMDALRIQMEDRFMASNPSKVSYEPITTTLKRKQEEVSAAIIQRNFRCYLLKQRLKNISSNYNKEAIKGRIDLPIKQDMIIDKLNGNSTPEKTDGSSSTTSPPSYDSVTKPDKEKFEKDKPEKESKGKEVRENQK
T1 sequence (Q07699 19-218 partner): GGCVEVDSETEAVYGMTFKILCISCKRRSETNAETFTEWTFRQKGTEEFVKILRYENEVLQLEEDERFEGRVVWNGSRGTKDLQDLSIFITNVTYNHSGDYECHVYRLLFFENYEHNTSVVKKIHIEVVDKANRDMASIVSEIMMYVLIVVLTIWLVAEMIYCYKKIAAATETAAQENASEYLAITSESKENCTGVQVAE
T1 sequence (O60939 30-215 partner): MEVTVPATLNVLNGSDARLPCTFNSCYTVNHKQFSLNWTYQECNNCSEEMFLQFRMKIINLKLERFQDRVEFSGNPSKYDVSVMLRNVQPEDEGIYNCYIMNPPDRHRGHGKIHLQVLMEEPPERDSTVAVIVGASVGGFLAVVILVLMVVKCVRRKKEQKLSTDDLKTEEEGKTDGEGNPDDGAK

Q: FC(F)(F)Oc1ccc(-c2ccc3onc(OCc4ncccn4)c3c2)cc1 [Example 1, 3-(pyrimidin-2-ylmethoxy)-5-(4-(trifluoromethoxy)phenyl)benzo[d]isoxazole] was tested. Which “Rabbit ST Segment (Percent reduction)” value [1] did it give?
A: 32 Percent reduction

Q: FC(F)(F)Oc1cccc(-c2ccc3onc(OCc4ncccn4)c3c2)c1 [Example 10, 3-(pyrimidin-2-ylmethoxy)-5-(3-(trifluoromethoxy)phenyl)benzo[d]isoxazole] was tested. Which inhibition at 1 µM (hNav1.3 (SCN3A)) did it give?
A: 8.5%

Q: FC(F)(F)Oc1ccc(-c2ccc3onc(OCc4nnc(C5CC5)o4)c3c2)cc1 [Example 96, 3-((5-cyclopropyl-1,3,4-oxadiazol-2-yl)methoxy)-5-(4-(trifluoromethoxy)phenyl)benzo[d]isoxazole] was tested. Which “Rabbit ST Segment (Percent reduction)” value [1] did it give?
A: 46 Percent reduction

Q: What does the source list for O=C1CCCN1CCOc1noc2ccc(-c3ccc(OC(F)(F)F)cc3)cc12 [Example 59, 1-(2-((5-(4-(trifluoromethoxy)phenyl)benzo[d]isoxazol-3-yl)oxy)ethyl)pyrrolidin-2-one]?
A: inhibition at 1 µM (hNav1.3 (SCN3A)): 14.5%; Rabbit ST Segment (Percent reduction) [1]: 23 Percent reduction

Q: COc1cc(-c2ccc(OC(F)(F)F)cc2)cc2c(OCc3ncccn3)noc12 [Example 22, 7-methoxy-3-(pyrimidin-2-ylmethoxy)-5-(4-(trifluoromethoxy)phenyl)benzo[d]isoxazole] was tested. Which inhibition at 1 µM (hNav1.3 (SCN3A)) did it give?
A: 17.3%

Q: Which inhibition at 1 µM (hNav1.3 (SCN3A)) does the source give for Fc1cc(-c2ccc3onc(OCc4ncccn4)c3c2)ccc1Cl [Example 8, 5-(4-chloro-3-fluorophenyl)-3-(pyrimidin-2-ylmethoxy)benzo[d]isoxazole] here?
A: 6.4%

Q: For CC(COc1noc2ccc(-c3ccc(OC(F)(F)F)cc3)cc12)n1cccn1 (stereo not shown) [Example 68, 3-(2-(1H-pyrazol-1-yl)propoxy)-5-(4-(trifluoromethoxy)phenyl)benzo[d]isoxazole], which inhibition at 1 µM (hNav1.3 (SCN3A)) is on record?
A: 27.1%

Q: How did the “Rabbit ST Segment (Percent reduction)” value [1] turn out when FC(F)(F)Oc1ccc(-c2ccc3onc(OCCn4cncn4)c3c2)cc1 [Example 58, 3-(2-(1H-1,2,4-triazol-1-yl)ethoxy)-5-(4-(trifluoromethoxy)phenyl)benzo[d]isoxazole] was run?
A: 14 Percent reduction

Q: Cc1ccnc(COc2noc3ccc(-c4ccc(OC(F)(F)F)cc4)cc23)n1 [Example 5, 3-((4-methylpyrimidin-2-yl)methoxy)-5-(4-(trifluoromethoxy)phenyl)benzo[d]isoxazole] was tested. Which inhibition at 1 µM (hNav1.3 (SCN3A)) did it give?
A: 13.9%

Q: And the “Rabbit ST Segment (Percent reduction)” value [1]?
A: 0 Percent reduction

Q: COc1cc(OC(F)(F)F)ccc1-c1ccc2onc(OCc3ncccn3)c2c1 [Example 4, 5-(2-methoxy-4-(trifluoromethoxy)phenyl)-3-(pyrimidin-2-ylmethoxy)benzo[d]isoxazole] was tested. Which inhibition at 1 µM (hNav1.3 (SCN3A)) did it give?
A: 12.2%

Q: For Cc1cc(-c2ccc3onc(OCc4ncccn4)c3c2)ccc1OC(F)(F)F [Example 7, 5-(3-methyl-4-(trifluoromethoxy)phenyl)-3-(pyrimidin-2-ylmethoxy)benzo[d]isoxazole], which inhibition at 1 µM (hNav1.3 (SCN3A)) is on record?
A: < 5%

Q: How did the inhibition at 1 µM (hNav1.3 (SCN3A)) turn out when Fc1cc(C(F)(F)F)ccc1-c1ccc2onc(OCc3ncccn3)c2c1 [Example 6, 5-(2-fluoro-4-(trifluoromethyl)phenyl)-3-(pyrimidin-2-ylmethoxy)benzo[d]isoxazole] was run?
A: < 5%

Q: What about the “Rabbit ST Segment (Percent reduction)” value [1] of the same compound?
A: 0 Percent reduction

Q: How did the inhibition at 1 µM (hNav1.3 (SCN3A)) turn out when Cc1nnc(COc2noc3ccc(-c4ccc(OC(F)(F)F)cc4)cc23)o1 [Example 99, 3-((5-methyl-1,3,4-oxadiazol-2-yl)methoxy)-5-(4-(trifluoromethoxy)phenyl)benzo[d]isoxazole] was run?
A: 41.4%
